In ChEMBL document CHEMBL1146520, “Sterol and triterpenoid constituents of Verbena littoralis with NGF-potentiating activity” (J Nat Prod, 2003) one finds Activity data, which are given here for four molecules.

Assay type in all cases: functional, cell-based
Assay [1] has as its system PC-12. Kind of assay: Enhancement of neurite outgrowth in rat PC12D cells up to 30 uM in absence of nerve growth factor.
For assay [2], the system named is PC-12. Kind of assay: Enhancement of nerve growth factor-stimulated neurite outgrowth in rat PC12D cells at 1 to 3 uM.
Assay [3] deals with PC-12. Kind of assay: Enhancement of nerve growth factor-stimulated neurite outgrowth in rat PC12D cells at 3 to 10 uM.

Structures are written as SMILES. Active and inactive are the calls of the source. No cut-off for these calls is given here.

For the molecule `CC[C@H](C[C@@H](O)[C@@H](C)[C@H]1CC[C@H]2[C@@H]3[C@H](O)C=C4[C@@H](O)[C@@H](O)CC[C@]4(C)[C@H]3CC[C@]12C)C(C)C`, the result in the assay on PC-12 [1] was inactive.

`C[C@H]1[C@H](C)CC[C@]2(C(=O)O)CC[C@]3(C)C(=CC[C@@H]4[C@@]5(C)CC[C@H](O)C(C)(C)[C@@H]5CC[C@]43C)[C@H]12`: in the assay with PC-12 [2], the outcome was Active. Moreover, in the assay on PC-12 [1], the outcome was inactive.

As to `CC1(C)CC[C@]2(C(=O)O)CC[C@]3(C)C(=CC[C@@H]4[C@@]5(C)CC[C@H](O)C(C)(C)[C@@H]5CC[C@]43C)[C@@H]2C1`, in the assay on PC-12 [3], the outcome was Active. For the same molecule, in the assay on PC-12 [1], the outcome was inactive.

With `CC[C@H](C[C@@H](O)[C@@H](C)[C@H]1CC[C@H]2[C@@H]3[C@H](O)C=C4C[C@@H](O)CC[C@]4(C)[C@H]3CC[C@]12C)C(C)C`, in the assay with PC-12 [3], the outcome was Active. For the same molecule, in the assay with PC-12 [1], the result was inactive.
